Measurements reported in patent US8003615B2, “Stable vitamin B6 derivative” (Daiichi Fine Chemical Co., Ltd., priority 2003, dated 2011).

Experiments:
[1] = Light stability in a shampoo; format: physicochemical
Procedure: Sodium coconut oil fatty acid methyltaurine (10.0 g), polyoxyethylene alkyl ether sodium sulfate (20.0 g), lauryl dimethylaminoacetate betaine (10.0 g), coconut oil fatty acid diethanolamide (4.0 g), propylene glycol (2.0 g), vitamin B6 derivative (0.1 g), and methyl paraoxybenzoate (0.01 g) were added to purified water (40 ml), and warmed to 70° C. for dissolution. The solution was cooled to a temperature below 35° C., and then adjusted to pH 6.8 with 10% aqueous citric acid, and made into a volume of 100 ml with purified water to prepare a shampoo. In this preparation, precipitates and the like were not observed. The prepared shampoo in a volume of 6 ml was filled in a glass bottle, and exposed to light of a D65 fluorescent lamp at a total illumination of 0, 60,000, 180,000, or 300,000 lux·hr, and then the vitamin B6 derivative was quantified. The same sample was separately stored at 50° C., and after 0 day, 14 days, one month, and two months, the vitamin B6 derivative was quantified by the HPLC method in the same manner as in Test Example 11 mentioned above.

[2] = Test for change in formulation: powder mixed with calcium pantothenate; format: physicochemical; details: 40° C. and 75% humidity, one month
Procedure: Calcium pantothenate (1 g) and a vitamin B6 derivative (1 g) was uniformly mixed in a mortar to prepare a sample in the form of a powder for stability test. The sample placed in an opened glass bottle was stored in an oven at 40° C. under 75% humidity. Appearance of the sample was examined by visual inspection after 0 day, 14 days, and one month, and the vitamin B6 derivative and calcium pantothenate were quantified by the HPLC method in the same manner as in Test Example 11 mentioned above, provided that the detection wavelength for calcium pantothenate was 210 nm.

[3] = Light stability in a dog food; format: physicochemical
Procedure: A vitamin B6 derivative (0.1 g) was added to wheat flour (10 g), and uniformly mixed. The mixture was further successively added with breast meat of chicken (40.0 g), soybean protein (30.0 g), glucose (5.0 g), citric acid (0.001 g), sodium chloride (1.0 g), copper sulfate (0.01 g), iron sulfate (0.01 g), sorbic acid (0.3 g), and propylene glycol (5.0 g), and uniformly mixed. The mixture was made 100 g with purified water, and uniformly mixed to prepare dog food.
The prepared dog food in an amount of 5 g was put into a petri dish, and exposed to light of a D65 fluorescent lamp at a total illumination of 0, 60,000, 180,000, or 300,000 lux·hr, and then the vitamin B6 derivative was quantified by the HPLC method in the same manner as in Test Example 11 mentioned above.

[4] = Test for change in formulation: aqueous solution with calcium pantothenate; format: physicochemical; details: aqueous solution 0.1 g + 0.1 g calcium pantothenate per 100 ml, 40° C., one month
Procedure: Calcium pantothenate (0.1 g) and a vitamin B6 derivative (0.1 g) were dissolved in purified water and made 100 ml to prepare a sample for stability test in the form of a solution. The sample filled in a sealed glass bottle was stored at 40° C. Appearance of the sample was examined by visual inspection after 0 day, 14 days, and one month, and the vitamin B6 derivative and calcium pantothenate were quantified by the HPLC method in the same manner as in Test Example 11 mentioned above, provided that the detection wavelength for calcium pantothenate was 210 nm.

[5] = format: physicochemical; details: 0.5% (w/v) aqueous solution, D65 fluorescent lamp 13,000 Lx
Procedure: A 0.5% (w/v) aqueous solution of pyridoxine 3-β-D-glucoside (pH 6.7) in a volume of 0.3 ml was enclosed in a 1-ml volume glass ampoule, and irradiated with a D65 fluorescent lamp (Toshiba) for 14 days. The irradiation was performed at room temperature with an illumination of 13,000 Lx. Samples before the irradiation and after 1 day, 7 days and 14 days of the irradiation were analyzed by HPLC to measure a pyridoxine 3-β-D-glucoside content. A solution of pyridoxine hydrochloride of the same concentration (adjusted to pH 6.7) was treated in the same manner, and the results were compared. The HPLC measurement conditions were as follows.
Column: Inertsil ODS-3 ([…], ([…], φ4.6×150 mm, GL Science Inc.)
Eluent acetonitrile:0.1% (v/v) trifluoroacetic acid, 5 mM sodium 1-hexanesulfonate=1:9
Column temperature: 40° C.
Aqueous solutions (0.5% (w/v)) of pyridoxine 3-β-D-glucoside hydrochloride, pyridoxal 3-β-D-glucoside, pyridoxamine 3-β-D-glucoside, pyridoxine 3-β-D-galactoside, and pyridoxine hydrochloride (adjusted to pH 6.3 to 7.2 with HCl or NaOH) were each sealed in a volume of 0.3 ml in a 1-ml volume glass ampoule, and light irradiation and HPLC quantification were performed in the same manner as in Test Example 1. […] Test Example 4 (thermal stability of pyridoxine 3-β-D-glucoside hydrochloride and various 3-glycosides) […]

[6] = Light stability in an eye lotion; format: physicochemical
Procedure: Neostigmine methylsulfate (5 mg), potassium L-aspartate (0.4 g), boric acid (5 mg), sodium borate (5 mg), methyl paraoxybenzoate (10 mg), chlorobutanol (0.1 g), and vitamin B6 derivative (0.1 g) were dissolved in sterilized purified water (70 ml). After dissolution, the solution was made into a volume of 100 ml with sterilized purified water to prepare an eye lotion. In this preparation, precipitates and the like were not observed. The prepared eye lotion in a volume of 6 ml was put into a glass bottle, and exposed to light of a D65 fluorescent lamp at a total illumination of 0, 60,000, 180,000, or 300,000 lux·hr, and then the vitamin B6 derivative was quantified by the HPLC method in the same manner as in Test Example 11 mentioned above.

[7] = Light stability in a drinking water; format: physicochemical
Procedure: Glucose (4.6 g), Aspartame (0.01 g), citric acid (0.1 g), sodium chloride (0.02 g), potassium chloride (0.02 g), magnesium chloride (0.01 g), calcium lactate (0.04 g), vitamin B6 derivative (0.01 g), sodium L-aspartate (0.07 g), sodium L-glutamate (0.02 g), L-arginine (0.02 g), and aromatic (0.1 g) were dissolved in purified water (70 ml), and then made into a volume of 100 ml with purified water to prepare a drinking water. In this preparation, precipitates and the like were not observed. The prepared drinking water in a volume of 6 ml was filled in a glass bottle, and exposed to light of a D65 fluorescent lamp at a total illumination of 0, 60,000, 180,000, or 300,000 lux·hr, and then the vitamin B6 derivative was quantified by the HPLC method in the same manner as in Test Example 1.

[8] = D65 fluorescent lamp, 180,000 lux·hr for 3 days
[9] = D65 fluorescent lamp, 300,000 lux·hr for 5 days

Cc1ncc(CO)c(CO)c1O.Cl [pyridoxine hydrochloride]
remained substance in shampoo after irradiation ([1]; shampoo pH 6.8, D65 fluorescent lamp, 180,000 lux·hr for 3 days): 60%
remained substance in shampoo after irradiation ([1]; shampoo pH 6.8, D65 fluorescent lamp, 300,000 lux·hr for 5 days): 58%
remained calcium pantothenate in the formulation with the substance ([2]; powder 1 g + 1 g calcium pantothenate): 81%
appearance of the formulation with calcium pantothenate ([2]; powder, visual inspection): the white appearance became brown, and blocking and deliquescence were observed
remained substance in dog food after irradiation [3, 8]: 90%
remained substance in dog food after irradiation [3, 9]: 85%
remained calcium pantothenate in the formulation with the substance [4]: 83%
coloring of the aqueous solution after the light irradiation [5]: colored in pale yellow
remained substance in eye lotion after irradiation [6, 8]: 68%
remained substance in eye lotion after irradiation [6, 9]: 49%
remained substance in drinking water after irradiation [7, 8]: 68%
remained substance in drinking water after irradiation [7, 9]: 56%
